The assay addresses Envelope glycoprotein gp160 (Human immunodeficiency virus 1, UniProt Q6QLK5). Description: cell-free HIV fusion peptide-binding blockers – biochemical, uHTS, fluorescence dequenching, […] (AID 1986).

Active and inactive are the calls of the source. Cut-off read from the data, not from the text of the source: actives have a measured IC50 and inactives only a lower limit.

Chain of Envelope glycoprotein gp160 (Q6QLK5 whole entry, the tested form may be a part): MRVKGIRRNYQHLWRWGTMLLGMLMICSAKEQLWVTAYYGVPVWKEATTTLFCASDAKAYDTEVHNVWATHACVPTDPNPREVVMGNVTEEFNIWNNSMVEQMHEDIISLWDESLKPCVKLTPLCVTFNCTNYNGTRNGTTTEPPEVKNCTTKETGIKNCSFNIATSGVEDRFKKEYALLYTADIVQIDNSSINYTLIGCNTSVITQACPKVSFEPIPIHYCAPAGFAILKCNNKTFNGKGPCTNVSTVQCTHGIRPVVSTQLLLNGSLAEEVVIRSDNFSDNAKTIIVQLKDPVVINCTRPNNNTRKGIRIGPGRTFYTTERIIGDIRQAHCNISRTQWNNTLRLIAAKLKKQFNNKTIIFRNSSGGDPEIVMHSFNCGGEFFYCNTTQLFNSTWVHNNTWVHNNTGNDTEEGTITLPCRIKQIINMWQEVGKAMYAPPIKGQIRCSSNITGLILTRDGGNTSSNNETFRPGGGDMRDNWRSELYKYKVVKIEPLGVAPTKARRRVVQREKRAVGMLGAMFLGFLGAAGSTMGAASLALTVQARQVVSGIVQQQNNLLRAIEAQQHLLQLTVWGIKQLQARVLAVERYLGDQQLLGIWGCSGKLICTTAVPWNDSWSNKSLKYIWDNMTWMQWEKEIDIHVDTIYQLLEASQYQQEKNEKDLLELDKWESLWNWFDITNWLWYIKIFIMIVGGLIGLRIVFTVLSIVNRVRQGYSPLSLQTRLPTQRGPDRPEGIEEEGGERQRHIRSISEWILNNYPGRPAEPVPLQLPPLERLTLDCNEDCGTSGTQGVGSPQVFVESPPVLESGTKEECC

In general, IC50 refers to the concentration needed to halve the response being measured. As for `O=C(O)c1[nH]c2ccccc2c1C(c1c(F)cccc1Cl)c1c(C(=O)O)[nH]c2ccccc12`, the IC50 is 13.4 µM (active).
For the compound `Cc1nn(CCc2nn[nH]n2)c2nc(-c3ccc(C4CCCCC4)cc3)cc(C(F)(F)F)c12`, the IC50 is 12.4 µM (active).

(Values after ChEMBL document CHEMBL1201862, “PubChem BioAssay data set” (2004).)
